Experimental data taken from US7153685B2 (The Board of Trustees of the University of Illinois, priority 2002, dated 2006).

Tests used:
[1] = tested on: ATL2/pS2 ERE-LUC reporter in HepG2 cells; assay: MOX-dependent transactivation by wild-type and mutant ERs, transient transfection, luciferase reporter; assay type: cell-based, human; conditions: 10 nM MOX
cERE probe = assay: EMSA (gel mobility shift), ER binding to cERE probe; conditions: CHO-S extracts
Description: (§1) CHO—S cells (Life-Technologies; Grand Island, N.Y.) were transfected using Lipofectamine 2000 (Life-Technologies). Transfection was performed according to the manufacturer's instructions, except cells were grown in 6-well plates coated with 1 ml of 0.1 mg/mL polylysine for 24 hours at 37° C. prior to transfection. One μg of CMV-hERα and 3 μg of pTZ18U carrier DNA were used for each well; DNA:Lipofectamine 2000 was 1:3. 17β-estradiol was added to a final concentration of 10 nM 1 hour before harvest. Whole cell extracts were prepared as described (Zhang et al., 1996) with a modified extraction buffer (50 m-M Tris-HCl, pH 7.5, 1.5 mM EDTA, 10 mM Na2MoO4, 0.5 M NaCl, 10% glycerol, 0.5 mM β-mercaptoethanol, 50 μg/ml leupeptin, 1 μg/ml pepstatin and 5 μg/ml aprotinin).
(§2) Gel mobility shift assays were performed essentially as described [Zhang, 1999 #38]. Each 20 μl reaction contained 50 mM KCl, 15 mM Tris-HCl (pH 7.9), 4 mM dithiothreitol, 0.2 mM EDTA, 3 μg of poly(dIdC) and 10% glycerol; bovine serum albumin (BSA) was added to each sample for a total of 10 μg of protein. Free probe and protein-DNA complexes were quantitated using a phosphor imager and ImageQuant 5.0 (Molecular Dynamics, Inc., Sunnyvale, Calif.). The sequence of one DNA strand of each of the three probes (SEQ ID NOS:61–63) used for the gel mobility shift assays are presented in Table 31. The ERE or PAL sequences are underlined.
To compare binding of wild type hERα and the ER mutants to the EREs, protein titrations were performed. Increasing amounts of extracts containing equivalent levels of wild-type ER or ER mutants were incubated with the cERE. The ER:ERE complexes were then analyzed by EMSA. […] The mutants required 1.5–2.4-fold more extract to bind 50% of the cERE probe than wild-type ER. […] Even at the highest level of extract (8 μg), wild-type ER shifted only ˜15% of the pS2 probe.
FIG. 1 (Legend) A. Panel (i), Western blots of normalized whole cell extracts of wild type hERα and mutants from transfected CHO-S cells. Lane 1–13: mutants 4, 2, 57.1, 50.1, 15.3, wild type ER, 7.2, 6.2, 4.3, 3.1, 2.1, wild type, and 3M, respectively. Panel (ii), The three ERE sequences used in these studies. The nucleotides that differ from those in the consensus ERE (cERE) are underlined. Nucleotides in lower case lettering are less well conserved or not conserved in EREs. […] The data were calculated by PhosphorImager analysis. (B) The labeled cERE probe was incubated with 0.5, 1.0, 2.0 and 4.0 μg of whole cell extracts of wild type hERα, or extracts containing the mutant ERs normalized to contain the same amount of ER as the wild-type ER extract at each point. (C) Gel shift assays using the labeled pS2 ERE probes and increasing amounts (1.0, 2.0, 4.0 and 8.0 μg) of the whole cell extracts containing wild-type ER and each of the ER mutants. (D) Gel shift assays using the labeled pS2 palindrome ERE probe. The ER extract contained 2.0, 4.0 and 8.0 μg of whole cell extract (panel (i)), and 15 μg (panel (ii)). Lanes 1–7 (panel (ii)) represent wild type hERα, and mutants 3M, 3.1, 4.3, 6.2, 2 and 4, respectively. D (iii) contains a graph of the percentage of the labeled pS2 PAL probe shifted calculated by PhosphorImager analysis of the data in D(i) and D(ii).

[2] = tested on: ER3M-VP16 fusion proteins (N-79, N-129, C-79, C-129); assay: ATL8/PAL-LUC transactivation with CMV-driven ER3M-VP16 fusion proteins in HepG2 cells; assay type: cell-based, human; conditions: 10 nM ICI 182,780, no OHT
Description: These fragments were digested with KpnI and BamHI and then purified from agarose gels. […] To create C-129, this ER fragment was digested with XbaI and KpnI and then cloned together with the DNA fragment containing 129 amino acids of VP16 into 5.9 kb vector generated by digestion of CMV-hER with XbaI and BamHI. The same strategy was adopted to create C-79 using the DNA fragment containing 79 amino acids of VP16. Therefore, the expression of these chimeras is driven by the same CMV promoter as that of ER-3M. […] The amplified PCR product was digested with NcoI and NotI. […] This fragment and the NcoI/NotI PCR fragment were then inserted together into the 4.3 kb vector, pGL3-ATL8/PAL-LUC, which was created by digesting ATL8/PAL-LUC completely with NcoI and partially with XbaI so that the luciferase gene was replaced by N-79.

wild type hERα = biological target: T1, wild type hERα (Homo sapiens, UniProt P03372, G400V); assay: Ligand-dependent luciferase reporter transactivation in transfected HepG2 cells; conditions: for MOX-dependent increase in luciferase activity: ATL2/cERE-LUC, 10 nM MOX
T1 sequence (P03372 1-595 G400V): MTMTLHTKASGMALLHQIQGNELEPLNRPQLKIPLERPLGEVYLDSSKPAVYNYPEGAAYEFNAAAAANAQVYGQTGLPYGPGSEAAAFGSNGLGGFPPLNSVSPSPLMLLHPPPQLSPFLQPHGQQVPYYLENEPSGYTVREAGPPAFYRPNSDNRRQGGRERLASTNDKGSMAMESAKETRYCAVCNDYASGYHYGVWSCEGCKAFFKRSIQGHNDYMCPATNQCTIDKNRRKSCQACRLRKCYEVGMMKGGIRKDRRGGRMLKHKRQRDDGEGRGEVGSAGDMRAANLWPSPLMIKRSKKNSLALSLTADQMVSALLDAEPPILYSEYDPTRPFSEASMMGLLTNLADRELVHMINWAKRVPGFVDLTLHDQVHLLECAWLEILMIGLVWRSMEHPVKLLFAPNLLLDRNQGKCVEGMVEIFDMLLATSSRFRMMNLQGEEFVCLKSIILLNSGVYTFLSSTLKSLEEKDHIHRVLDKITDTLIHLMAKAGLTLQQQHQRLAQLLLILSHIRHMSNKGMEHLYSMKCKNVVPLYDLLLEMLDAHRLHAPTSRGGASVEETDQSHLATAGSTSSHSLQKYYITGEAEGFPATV
Description: HepG2 human hepatoma cells were maintained in a humidified 5% CO2 incubator at 37° C. in Dulbecco's Modified Eagle's Medium (DMEM; Sigma; St. Louis, Mo.) supplemented with 10 % charcoal-dextran-stripped fetal bovine serum (CD-FBS; Atlanta Biologicals, Inc; Atlanta, Ga.), 50,000 U/l of penicillin, and 50 mg/liter streptomycin (Life Technologies, Inc.). MCF-7 cells were routinely maintained in DMEM/Nutrient Mixture F-12 (DMEM/F12) supplemented with 10% heat-inactived FBS, 50,000 U/l of penicillin, and 50 mg/l streptomycin. CHO-S cells were maintained in DMEM/F12 supplemented with 10% heat-inactivated FBS (CD-FBS when ERs were being expressed) or 10% CD-new born calf serum (CD-NBCS, when reporter activity by different ligands were measured), 29.2 mg/l L-glutamine (Sigma), and 50,000 U/l of penicillin and 50 mg/l streptomycin.
Transient transfections in HepG2 cells was accomplished using calcium phosphate co-precipitation (Ausubel et al., 1987). Briefly, cells were plated in 12-well microplates at a density of 1×10^5 cells/well. The next day, the medium was replaced, and 2–6 hours later, precipitated calcium phosphate:DNA co-crystals were added. After 12–16 hours, the cells were shocked for 3 minutes with 20% glycerol in Tris-buffered saline, pH 7.4. Fresh medium and (if any) hormones were added. For MCF-7 and 231 cells, transient transfection was carried out using the Tfx™-20 reagent (Promega; Madison, Wis.) according to the manufacturer's direction with minor changes. Briefly, 1×10^5 cells were plated in each well of 12-well microplates one day before transfection. A 1:3 ratio of DNA to lipid was used. The DMEM/F12 medium without serum was used as carrier for the DNA-lipid mixture. After 1 hour incubation with the DNA-lipid-DMEM/F12 at 37° C., the cells were transferred to fresh DMEM/F12 supplemented with 10% CD-FBS, 50,000 U/I of penicillin, 50 mg/l streptomycin and hormones. Transfection on CHO—S cells was described as above for the preparation of ERs extraction except the medium contained 10% CD-NBCS. The cells subjected to either transfection method were harvested 48 hours post-transfection. Reporter assays were performed by lysing the cells in situ with 250 μl of passive lysis buffer (Promega). Activity was determined using the dual luciferase assay protocol according to the manufacturer's directions (Promega) on a Monolight 2010 luminometer (Analytical Luminescence, San Diego, Calif.)
Transient transfections of HepG2 cells were carried out and luciferase activity determined.

[3] = tested on: ATL2/PAL-LUC reporter in HepG2 cells; assay: MOX-dependent transactivation by wild-type and mutant ERs, transient transfection, luciferase reporter; assay type: cell-based, human; conditions: 10 nM MOX
pS2 PAL probe = assay: EMSA (gel mobility shift), ER binding to pS2 PAL probe
Description: as §1
(§3) Gel mobility shift assays were performed essentially as described [Zhang, 1999 #38]. […] Free probe and protein-DNA complexes were quantitated using a phosphor imager and ImageQuant 5.0 (Molecular Dynamics, Inc., Sunnyvale, Calif.). […]
(§4) FIG. 1 (Legend) A. Panel (i), Western blots of normalized whole cell extracts of wild type hERα and mutants from transfected CHO-S cells. […] The data were calculated by PhosphorImager analysis. […] D (iii) contains a graph of the percentage of the labeled pS2 PAL probe shifted calculated by PhosphorImager analysis of the data in D(i) and D(ii).

pS2 ERE probe = assay: EMSA (gel mobility shift), ER binding to pS2 ERE probe
Description: CHO—S cells (Life-Technologies; Grand Island, N.Y.) were transfected using Lipofectamine 2000 (Life-Technologies). Transfection was performed according to the manufacturer's instructions, except cells were grown in 6-well plates coated with 1 ml of 0.1 mg/mL polylysine for 24 hours at 37° C. prior to transfection. One μg of CMV-hERα and 3 μg of pTZ18U carrier DNA were used for each well; DNA:Lipofectamine 2000 was 1:3. 17β-estradiol was added to a final concentration of 10 nM 1 hour before harvest. […]
as §3
To compare binding of wild type hERα and the ER mutants to the EREs, protein titrations were performed. […] The ER:ERE complexes were then analyzed by EMSA. […]
as §4

[4] = tested on: putative ERE in the Bcl2 gene; assay: EMSA, ER binding to putative ERE in the Bcl2 gene; conditions: summary statement
Description: as §2
It therefore seemed possible that binding of wild-type ER to the pS2 ERE is based on strong binding of one monomer of the ER dimer to the cERE half site (aGGTCA; SEQ ID NO: 65) and weak non-specific interaction of the other ER monomer with the sequence at the other half site. To test this possibility, binding of wild-type and the ER mutants to a putative ERE in the Bcl2 gene was examined. Like pS2, Bcl2 contains a cERE half site, but also contains a second, different half site that deviates from the consensus sequence by one nucleotide.

Compound: ER4: ERα DNA binding domain mutant, SEQ ID NO:14 (WGCKAFFKRSIARGNDY; Mutant DBD of ER)
- activation of transcription from native pS2 ERE compared with wild-type ER [1]: more effectively than wild-type ER

Compound: ER50.1: ERα DNA binding domain mutant, SEQ ID NO:22 (WSCKGFFKRSKQGHNDY; Mutant DBD of ER)
- binding to cERE and pS2 ERE DNA probes (cERE probe): little or no binding

Compound: ER3.1: ERα DNA binding domain mutant, SEQ ID NO:6 (WGCKAFFKRSINRHNSY; Mutant DBD of ER)
- activation of transcription from native pS2 ERE compared with wild-type ER [1]: less effective

Compound: C[C@]12CC[C@@H]3c4ccc(O)cc4C[C@@H](CCCCCCCCC[S+]([O-])CCCC(F)(F)C(F)(F)F)[C@H]3[C@@H]1CC[C@@H]2O (some centres unmarked) [ICI 182,780]
- effect on basal transactivation by the fusion proteins [2]: decreased

Compound: C#C[C@]1(O)CC[C@H]2[C@@H]3CCc4cc(O)ccc4[C@H]3[C@@H](OC)C[C@@]21C [MOX, moxestrol]
- transactivation level on two copies of pS2 PAL (wild type hERα; ATL2/PAL-LUC, 10 nM ligand): undetectable
- MOX-dependent increase in luciferase activity (wild type hERα; 0.75 ng expression plasmid): 32 fold
- MOX-dependent increase in luciferase activity (wild type hERα; 2.5 ng expression plasmid): 41 fold

Compound: ER6.2: ERα DNA binding domain mutant, SEQ ID NO:10 (EGCKAFFKRSIARRLDY; Mutant DBD of ER)
- ability to activate transcription of the pS2 PAL reporter [3]: little or no ability to activate transcription
- binding to pS2 PAL (pS2 PAL probe): negligible binding
- change in binding to pS2 ERE probe compared with cERE (pS2 ERE probe): dramatic decrease in binding
- activation of transcription from native pS2 ERE compared with wild-type ER [1]: less effective

Compound: ER3M: ERα DNA binding domain mutant, residues 203–219 as SEQ ID NO:4 (WGCKAFFKRSIAGGNDY; Mutant DBD of ER)
- binding to, or transcription from, the Bcl2 and TGF α1 EREs [4]: no detectable binding to, or transcription from
- activation of transcription from native pS2 ERE compared with wild-type ER [1]: more effectively than wild-type ER

Compound: ER57.1: ERα DNA binding domain mutant, SEQ ID NO:24 (WSCKGFFKRSIKGVPTY; Mutant DBD of ER)
- binding to cERE and pS2 ERE DNA probes (cERE probe): little or no binding

Compound: ER2.1: ERα DNA binding domain mutant, SEQ ID NO:16 (WSCKAFFKRSIAGGNDY; Mutant DBD of ER)
- binding to cERE and pS2 ERE DNA probes (cERE probe): little or no binding

Compound: ER2: ERα DNA binding domain mutant, SEQ ID NO:12 (WGCKAFFKRSIARHNDY; Mutant DBD of ER)
- activation of transcription from native pS2 ERE compared with wild-type ER [1]: less effective

Compound: ER4.3: ERα DNA binding domain mutant, SEQ ID NO:8 (WGCKAFFKRSIVRPTDY; Mutant DBD of ER)
- binding to, or transcription from, the Bcl2 and TGF α1 EREs [4]: no detectable binding to, or transcription from
- activation of transcription from native pS2 ERE compared with wild-type ER [1]: more effectively than wild-type ER

Compound: ER15.3: ERα DNA binding domain mutant, SEQ ID NO:20 (ESCKAFFKRSIGGHNYY; Mutant DBD of ER)
- binding to cERE and pS2 ERE DNA probes (cERE probe): little or no binding

Compound: ER7.2: ERα DNA binding domain mutant, SEQ ID NO:18 (EGCKAFFKRSIQRHPRY; Mutant DBD of ER)
- binding to cERE and pS2 ERE DNA probes (cERE probe): little or no binding
